Measured values: US8791077B2, “Method for treating hyperuricemia employing an SGLT2 inhibitor and composition containing same” (AstraZeneca AB, priority 2008, dated 2014)

Assays:
SGLT2 relative to SGLT-1 = settings: ratio of EC50 in SGLT1 and SGLT2 assay
Description: Selectivity for SGLT2 of a given inhibitor can be determined by comparing the EC50 values measured in the SGLT1 and SGLT2 assay. […] The hSGLT1 and hSGLT2 sequences were cloned into pIRESneo vector (Clontech, Mountain View, Calif.) for mammalian expression and were stably transfected into Chinese hamster ovary (CHO) cells. SGLT-expressing clones were selected based on resistance to G418 antibiotic (GENETICIN®, Invitrogen, Carlsbad, Calif.) and activity in the ^14C-α-methyl-D-glucopyranoside (^14C-AMG) uptake assay.
Cells expressing hSGLT1 or hSGLT2 were maintained using standard cell culture techniques. […] Sodium-dependent ^14C-AMG uptake was calculated by subtracting the counts per minute (CPM) observed under sodium-free uptake conditions from the counts observed under sodium-containing conditions. Inhibitors were assayed at various concentrations in triplicate in the presence of sodium, and the percent inhibition was calculated by comparing CPM in inhibitor-containing wells with CPM in wells containing only DMSO vehicle. Phlorizin, a known SGLT inhibitor, was evaluated in parallel in every assay. […]

diabetic patients = experiment: 12-week treatment of diabetic patients: urine glucose, HbA1C, urine volume, serum uric acid; type: in vivo, human; settings: for Uric Acid (change in serum uric acid), mean ± standard deviation: 12 week treatment
type 2 diabetic patients = system: type 2 diabetic patients
Description: C-aryl glucoside SGLT2 inhibitors are known to reduce blood glucose levels in diabetic patients, see U.S. Pat. No. 6,774,112, which is incorporated herein by reference in its entirety, but not known to increase urine volume. […] Metformin reduces plasma glucose concentration by non-renal mechanisms and is not known to induce glucosuria. […] On day 1 and day 14, the patients were examined for the levels of glucosuria and changes in urine volumes. […] Patients' serum uric acid levels were not measured in this experiment.

patients with diabetes = settings: 5, 25, or 100 mg, FIG. 2
Description: The levels of urine glucose of all subjects are shown in the plot and the mean urine glucose is in the darker lines.

[1] = system: Healthy Normal Volunteers; experiment: Urinary glucose excretion over 24 hr in healthy normal volunteers after single doses of SGLT2 inhibitors; type: in vivo, human; settings: healthy subjects; 5, 20, 50 or 100 mg; compared to GSK 869,682; FIG. 1

## CCOc1ccc(Cc2cc([C@@H]3O[C@H](CO)[C@@H](O)[C@H](O)[C@H]3O)ccc2Cl)cc1 [dapagliflozin]
SGLT2 relative to SGLT-1
  Selectivity for SGLT2 relative to SGLT-1: High selectivity for SGLT2

## CN(C)C(=N)N=C(N)N [metformin, reference compound]
Diabetic patients; metformin group
  Uric Acid (change in serum uric acid), mean ± standard deviation: 0.18 ± 0.53 mg/dL
Diabetic patients; diabetic patients, 1500 mg metformin
  Reduced HbA1C levels: 0.73%

## CCOc1ccc(Cc2cc([C@@H]3O[C@H](CO)[C@@H](O)[C@H](O)[C@H]3O)ccc2Cl)cc1 [dapagliflozin PGS, dapagliflozin (S)-propylene glycol solvate]
Type 2 diabetic patients; two-week period
  Fasting serum glucose (FSG) levels: Dose-dependent reduction
  Postprandial glucose levels in oral glucose tolerance tests (OGTT): reduced postprandial glucose levels
  Urine volumes: no increase in urine volumes was apparent
Type 2 diabetic patients; vs placebo, FIG. 3
  Urinary glucose levels within a 24-hour time period: increased
Patients with diabetes
  Urine glucose excretion compared to placebo: higher levels of urine glucose excretion
Diabetic patients; 2.5 mg
  Uric Acid (change in serum uric acid), mean ± standard deviation: -1.03 ± 0.81 mg/dL
Diabetic patients; 5 mg
  Uric Acid (change in serum uric acid), mean ± standard deviation: -1.12 ± 0.84 mg/dL
Diabetic patients; 10 mg
  Uric Acid (change in serum uric acid), mean ± standard deviation: -0.98 ± 0.66 mg/dL
Diabetic patients; 20 mg
  Uric Acid (change in serum uric acid), mean ± standard deviation: -1.13 ± 0.78 mg/dL
Diabetic patients; 50 mg
  Uric Acid (change in serum uric acid), mean ± standard deviation: -1.14 ± 1.15 mg/dL
Diabetic patients; diabetic patients, 2.5-50 mg, after 12 weeks of treatment
  OGT: improved OGT
Diabetic patients; diabetic patients, all doses, after 12 weeks treatment
  Average of decrease in serum uric acid levels: approximately 1 g/dL
[1]
  Glucosuric effect (glucose excretion/day within 24 hours), loss of calories in urine: significant loss of calories in the urine
